Calls of active or inactive are those of the source. For most assays here, no stated cut-off is given here; in the data, actives have a measured Kd and inactives only a lower limit.
Experiments:
[1] = molecular target: Platelet-derived growth factor receptor beta (Homo sapiens, UniProt P09619)
[2] = molecular target: Ephrin type-A receptor 7 (Homo sapiens, UniProt Q15375)
[3] = molecular target: T1, Structural maintenance of chromosomes protein 1A (Homo sapiens, UniProt Q14683)
T1 sequence (Q14683 whole entry): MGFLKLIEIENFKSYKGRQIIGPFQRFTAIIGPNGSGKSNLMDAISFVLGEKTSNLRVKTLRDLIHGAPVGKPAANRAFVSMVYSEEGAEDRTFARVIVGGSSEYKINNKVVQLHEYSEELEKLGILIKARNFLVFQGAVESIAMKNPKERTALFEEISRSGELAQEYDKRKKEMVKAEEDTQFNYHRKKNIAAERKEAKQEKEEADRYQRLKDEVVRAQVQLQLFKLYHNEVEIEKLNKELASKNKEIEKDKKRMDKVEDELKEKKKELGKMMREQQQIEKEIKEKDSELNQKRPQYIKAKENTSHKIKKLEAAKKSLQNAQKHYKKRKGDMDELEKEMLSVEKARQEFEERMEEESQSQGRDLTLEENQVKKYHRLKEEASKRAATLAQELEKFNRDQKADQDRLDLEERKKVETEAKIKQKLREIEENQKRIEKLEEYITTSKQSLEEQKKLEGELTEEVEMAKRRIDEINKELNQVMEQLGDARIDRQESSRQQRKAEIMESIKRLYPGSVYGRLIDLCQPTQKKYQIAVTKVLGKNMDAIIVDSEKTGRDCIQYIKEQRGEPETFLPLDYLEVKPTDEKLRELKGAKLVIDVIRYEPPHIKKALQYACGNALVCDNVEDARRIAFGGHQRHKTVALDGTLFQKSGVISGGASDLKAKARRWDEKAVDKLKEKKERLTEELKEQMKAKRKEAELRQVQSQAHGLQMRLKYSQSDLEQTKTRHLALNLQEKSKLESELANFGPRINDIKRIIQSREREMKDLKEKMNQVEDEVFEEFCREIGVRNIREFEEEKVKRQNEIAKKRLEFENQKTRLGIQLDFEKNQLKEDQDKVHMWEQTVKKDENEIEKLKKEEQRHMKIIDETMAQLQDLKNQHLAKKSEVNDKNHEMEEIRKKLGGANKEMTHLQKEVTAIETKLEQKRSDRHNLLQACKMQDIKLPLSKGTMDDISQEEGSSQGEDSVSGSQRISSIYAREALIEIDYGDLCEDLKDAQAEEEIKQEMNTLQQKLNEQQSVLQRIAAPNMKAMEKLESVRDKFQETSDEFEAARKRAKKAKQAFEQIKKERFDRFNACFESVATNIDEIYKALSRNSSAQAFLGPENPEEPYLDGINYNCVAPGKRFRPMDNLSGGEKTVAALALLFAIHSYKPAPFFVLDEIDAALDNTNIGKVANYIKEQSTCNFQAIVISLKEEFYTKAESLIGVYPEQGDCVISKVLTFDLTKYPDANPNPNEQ

[4] = molecular target: Mitogen-activated protein kinase 7 (Homo sapiens, UniProt Q13164)
[5] = molecular target: T2, Ribosyldihydronicotinamide dehydrogenase [quinone] (Homo sapiens, UniProt P16083)
T2 sequence (P16083 whole entry): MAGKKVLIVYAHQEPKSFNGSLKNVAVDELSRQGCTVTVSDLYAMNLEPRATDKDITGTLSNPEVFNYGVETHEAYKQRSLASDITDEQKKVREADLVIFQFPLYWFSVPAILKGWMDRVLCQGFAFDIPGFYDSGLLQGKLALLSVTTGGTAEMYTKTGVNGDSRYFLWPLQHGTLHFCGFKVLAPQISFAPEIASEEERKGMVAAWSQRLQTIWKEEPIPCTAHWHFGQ

[6] = molecular target: T3, Discoidin domain-containing receptor 2 (Homo sapiens, UniProt Q16832)
T3 sequence (Q16832 whole entry): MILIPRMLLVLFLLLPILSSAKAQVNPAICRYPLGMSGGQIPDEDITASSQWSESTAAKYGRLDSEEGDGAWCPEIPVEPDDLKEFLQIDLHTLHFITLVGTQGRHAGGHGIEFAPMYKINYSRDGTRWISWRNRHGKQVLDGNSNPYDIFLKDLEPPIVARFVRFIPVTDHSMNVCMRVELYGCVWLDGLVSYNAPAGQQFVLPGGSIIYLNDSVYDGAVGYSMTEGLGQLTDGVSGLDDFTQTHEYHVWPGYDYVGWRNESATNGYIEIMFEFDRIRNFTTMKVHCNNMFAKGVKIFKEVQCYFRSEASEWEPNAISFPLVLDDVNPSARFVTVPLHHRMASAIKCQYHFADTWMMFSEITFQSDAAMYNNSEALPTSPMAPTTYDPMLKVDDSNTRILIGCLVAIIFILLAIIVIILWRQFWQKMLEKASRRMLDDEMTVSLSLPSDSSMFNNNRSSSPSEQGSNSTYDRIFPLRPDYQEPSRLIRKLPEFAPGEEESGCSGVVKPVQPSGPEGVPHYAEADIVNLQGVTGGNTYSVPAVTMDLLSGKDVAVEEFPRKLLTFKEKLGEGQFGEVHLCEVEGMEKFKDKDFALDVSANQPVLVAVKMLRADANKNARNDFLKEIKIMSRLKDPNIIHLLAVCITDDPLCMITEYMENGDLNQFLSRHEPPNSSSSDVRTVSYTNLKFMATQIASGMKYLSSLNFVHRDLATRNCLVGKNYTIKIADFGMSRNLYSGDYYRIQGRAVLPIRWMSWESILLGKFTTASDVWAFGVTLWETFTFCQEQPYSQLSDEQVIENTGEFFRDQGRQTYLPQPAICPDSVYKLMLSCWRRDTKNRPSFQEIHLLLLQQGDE

[7] = molecular target: cAMP-dependent protein kinase type II-alpha regulatory subunit (Homo sapiens, UniProt P13861)
[8] = molecular target: Aurora kinase B (Homo sapiens, UniProt Q96GD4)
[9] = molecular target: T4, EKC/KEOPS complex subunit TP53RK (Homo sapiens, UniProt Q96S44)
T4 sequence (Q96S44 whole entry): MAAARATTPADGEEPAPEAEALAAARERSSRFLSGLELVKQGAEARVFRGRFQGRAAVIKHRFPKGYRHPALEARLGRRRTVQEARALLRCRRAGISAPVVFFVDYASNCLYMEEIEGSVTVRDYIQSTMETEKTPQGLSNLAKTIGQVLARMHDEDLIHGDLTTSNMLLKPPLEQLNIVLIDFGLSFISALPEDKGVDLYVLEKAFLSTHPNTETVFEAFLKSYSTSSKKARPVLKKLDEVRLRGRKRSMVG

[10] = molecular target: Eukaryotic translation initiation factor 2-alpha kinase 1 (Homo sapiens, UniProt Q9BQI3)
[11] = molecular target: BMP-2-inducible protein kinase (Homo sapiens, UniProt Q9NSY1)

Sequence of Mitogen-activated protein kinase 7 (Q13164 whole entry): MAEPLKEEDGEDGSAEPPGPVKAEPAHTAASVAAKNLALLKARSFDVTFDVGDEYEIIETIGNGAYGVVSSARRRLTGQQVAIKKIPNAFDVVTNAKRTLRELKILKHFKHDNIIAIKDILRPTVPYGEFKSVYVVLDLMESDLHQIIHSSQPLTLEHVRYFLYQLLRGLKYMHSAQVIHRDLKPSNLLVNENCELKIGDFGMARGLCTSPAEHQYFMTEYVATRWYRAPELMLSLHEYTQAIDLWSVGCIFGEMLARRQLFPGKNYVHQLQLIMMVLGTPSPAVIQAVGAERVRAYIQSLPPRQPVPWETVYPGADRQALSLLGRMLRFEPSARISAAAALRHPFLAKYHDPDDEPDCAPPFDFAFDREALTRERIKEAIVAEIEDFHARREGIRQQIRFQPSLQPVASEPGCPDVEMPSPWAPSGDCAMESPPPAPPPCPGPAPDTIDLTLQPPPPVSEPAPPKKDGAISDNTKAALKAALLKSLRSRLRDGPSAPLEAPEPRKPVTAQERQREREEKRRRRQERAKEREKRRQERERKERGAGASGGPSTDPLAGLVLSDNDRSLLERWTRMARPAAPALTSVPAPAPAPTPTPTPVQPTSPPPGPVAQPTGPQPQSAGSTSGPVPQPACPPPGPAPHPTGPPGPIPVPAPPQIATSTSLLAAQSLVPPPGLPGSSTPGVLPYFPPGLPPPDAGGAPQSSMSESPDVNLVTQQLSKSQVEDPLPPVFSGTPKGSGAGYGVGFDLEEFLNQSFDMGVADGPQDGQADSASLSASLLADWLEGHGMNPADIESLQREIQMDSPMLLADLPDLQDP
Sequence of Eukaryotic translation initiation factor 2-alpha kinase 1 (Q9BQI3 whole entry): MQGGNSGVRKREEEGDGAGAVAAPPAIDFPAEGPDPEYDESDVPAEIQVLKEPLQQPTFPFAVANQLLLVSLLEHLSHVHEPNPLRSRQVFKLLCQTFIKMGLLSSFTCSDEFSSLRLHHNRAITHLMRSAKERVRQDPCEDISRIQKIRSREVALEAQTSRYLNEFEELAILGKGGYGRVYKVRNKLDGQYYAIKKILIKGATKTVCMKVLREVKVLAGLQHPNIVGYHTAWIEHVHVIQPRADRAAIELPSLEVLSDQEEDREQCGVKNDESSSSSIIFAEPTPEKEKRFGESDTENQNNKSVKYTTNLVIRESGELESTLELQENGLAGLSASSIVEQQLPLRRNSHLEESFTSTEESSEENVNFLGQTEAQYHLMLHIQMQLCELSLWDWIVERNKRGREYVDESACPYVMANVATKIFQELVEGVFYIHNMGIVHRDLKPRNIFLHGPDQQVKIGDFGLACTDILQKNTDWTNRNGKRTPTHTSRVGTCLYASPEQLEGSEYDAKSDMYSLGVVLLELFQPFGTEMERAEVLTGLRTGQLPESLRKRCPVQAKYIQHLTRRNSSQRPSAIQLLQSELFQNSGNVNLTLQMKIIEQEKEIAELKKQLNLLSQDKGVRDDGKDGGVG
Sequence of Platelet-derived growth factor receptor beta (P09619 whole entry): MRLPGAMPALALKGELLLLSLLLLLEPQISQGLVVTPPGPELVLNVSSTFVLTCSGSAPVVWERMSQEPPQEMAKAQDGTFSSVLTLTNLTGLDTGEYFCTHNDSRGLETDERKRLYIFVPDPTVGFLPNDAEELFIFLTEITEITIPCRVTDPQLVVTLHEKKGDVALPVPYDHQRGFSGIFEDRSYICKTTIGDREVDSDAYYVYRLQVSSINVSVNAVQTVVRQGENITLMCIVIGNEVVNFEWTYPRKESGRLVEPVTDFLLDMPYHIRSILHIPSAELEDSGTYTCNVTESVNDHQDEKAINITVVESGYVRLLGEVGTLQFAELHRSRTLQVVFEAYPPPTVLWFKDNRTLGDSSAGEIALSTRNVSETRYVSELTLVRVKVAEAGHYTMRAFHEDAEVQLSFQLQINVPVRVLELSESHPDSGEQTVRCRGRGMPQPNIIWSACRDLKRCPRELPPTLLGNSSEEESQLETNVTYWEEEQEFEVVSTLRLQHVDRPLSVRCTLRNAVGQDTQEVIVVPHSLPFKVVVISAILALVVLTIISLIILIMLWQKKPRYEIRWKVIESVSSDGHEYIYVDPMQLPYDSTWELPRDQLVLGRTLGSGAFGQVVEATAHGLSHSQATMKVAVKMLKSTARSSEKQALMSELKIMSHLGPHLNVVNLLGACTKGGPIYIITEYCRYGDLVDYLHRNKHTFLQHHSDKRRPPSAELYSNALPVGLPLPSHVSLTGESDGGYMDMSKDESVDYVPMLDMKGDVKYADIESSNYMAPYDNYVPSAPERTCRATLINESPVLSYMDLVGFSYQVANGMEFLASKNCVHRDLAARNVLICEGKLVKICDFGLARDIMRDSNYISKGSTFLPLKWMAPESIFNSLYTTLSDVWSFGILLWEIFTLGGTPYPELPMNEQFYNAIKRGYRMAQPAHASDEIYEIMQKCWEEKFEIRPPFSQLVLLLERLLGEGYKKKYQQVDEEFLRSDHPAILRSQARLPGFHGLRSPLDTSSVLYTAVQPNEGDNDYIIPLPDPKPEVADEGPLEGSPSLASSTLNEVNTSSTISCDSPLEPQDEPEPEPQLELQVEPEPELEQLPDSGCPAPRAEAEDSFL
Sequence of cAMP-dependent protein kinase type II-alpha regulatory subunit (P13861 whole entry): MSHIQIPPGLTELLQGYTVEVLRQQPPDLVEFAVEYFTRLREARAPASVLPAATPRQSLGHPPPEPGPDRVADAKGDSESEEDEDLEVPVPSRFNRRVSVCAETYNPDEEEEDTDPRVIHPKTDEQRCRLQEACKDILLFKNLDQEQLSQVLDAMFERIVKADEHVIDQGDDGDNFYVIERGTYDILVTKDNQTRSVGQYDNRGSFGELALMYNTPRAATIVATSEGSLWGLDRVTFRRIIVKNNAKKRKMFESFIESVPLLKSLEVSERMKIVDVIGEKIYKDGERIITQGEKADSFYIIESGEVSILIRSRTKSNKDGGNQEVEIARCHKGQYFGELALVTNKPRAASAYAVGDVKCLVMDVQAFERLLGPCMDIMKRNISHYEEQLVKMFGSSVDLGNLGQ
Sequence of Ephrin type-A receptor 7 (Q15375 whole entry): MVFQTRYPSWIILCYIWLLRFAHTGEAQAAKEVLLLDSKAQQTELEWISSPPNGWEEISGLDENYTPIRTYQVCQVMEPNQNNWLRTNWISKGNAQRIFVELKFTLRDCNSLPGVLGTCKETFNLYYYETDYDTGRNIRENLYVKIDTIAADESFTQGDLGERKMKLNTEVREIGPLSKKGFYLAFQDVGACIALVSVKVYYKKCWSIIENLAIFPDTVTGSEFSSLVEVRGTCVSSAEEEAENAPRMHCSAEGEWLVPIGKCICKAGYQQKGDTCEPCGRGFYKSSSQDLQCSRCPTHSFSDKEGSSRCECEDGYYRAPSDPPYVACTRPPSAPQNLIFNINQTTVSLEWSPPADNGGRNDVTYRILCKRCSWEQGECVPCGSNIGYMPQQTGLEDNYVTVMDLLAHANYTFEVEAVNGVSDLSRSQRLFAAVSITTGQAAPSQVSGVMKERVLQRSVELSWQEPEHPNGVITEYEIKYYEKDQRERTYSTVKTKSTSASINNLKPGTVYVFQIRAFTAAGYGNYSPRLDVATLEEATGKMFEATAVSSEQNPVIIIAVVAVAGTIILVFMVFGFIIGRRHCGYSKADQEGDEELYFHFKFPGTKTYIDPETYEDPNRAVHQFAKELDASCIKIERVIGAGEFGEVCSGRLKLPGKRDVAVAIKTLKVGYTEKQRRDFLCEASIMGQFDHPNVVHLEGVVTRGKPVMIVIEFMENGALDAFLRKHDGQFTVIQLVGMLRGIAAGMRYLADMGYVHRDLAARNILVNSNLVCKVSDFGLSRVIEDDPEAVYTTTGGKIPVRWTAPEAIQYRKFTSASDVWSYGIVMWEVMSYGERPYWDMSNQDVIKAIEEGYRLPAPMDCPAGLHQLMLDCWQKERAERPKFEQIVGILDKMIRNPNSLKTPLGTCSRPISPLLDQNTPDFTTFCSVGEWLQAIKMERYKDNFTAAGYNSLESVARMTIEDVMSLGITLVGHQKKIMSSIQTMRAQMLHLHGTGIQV
Sequence of Aurora kinase B (Q96GD4 whole entry): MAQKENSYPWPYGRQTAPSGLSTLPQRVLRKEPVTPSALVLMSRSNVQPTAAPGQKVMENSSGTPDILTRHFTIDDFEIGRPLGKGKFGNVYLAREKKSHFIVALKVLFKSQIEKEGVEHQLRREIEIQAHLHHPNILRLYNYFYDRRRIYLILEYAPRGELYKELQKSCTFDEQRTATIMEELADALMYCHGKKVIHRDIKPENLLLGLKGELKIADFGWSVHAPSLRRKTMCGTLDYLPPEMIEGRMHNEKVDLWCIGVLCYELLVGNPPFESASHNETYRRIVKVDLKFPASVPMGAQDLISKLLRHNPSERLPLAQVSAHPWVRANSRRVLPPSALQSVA

| SMILES | Kd [1] | Kd [2] | Kd [3] | Kd [4] | Kd [5] | Kd [6] | Kd [7] | Kd [8] | Kd [9] | Kd [10] | Kd [11] |
| --- | --- | --- | --- | --- | --- | --- | --- | --- | --- | --- | --- |
| Cc1cc(Nc2ncnc3ccc(NC4=NC(C)(C)CO4)cc23)ccc1Oc1ccn2ncnc2c1 [TUCATINIB] | > 30 µM (inactive) | > 30 µM (inactive) | > 30 µM (inactive) | > 30 µM (inactive) | 2.46 µM (active) | > 30 µM (inactive) | > 30 µM (inactive) | > 30 µM (inactive) | > 30 µM (inactive) | > 30 µM (inactive) | > 30 µM (inactive) |
| CN1C/C=C/CCOc2cccc(c2)-c2ccnc(n2)Nc2cccc(c2)C1 [ZOTIRACICLIB] | > 30 µM (inactive) | > 30 µM (inactive) | > 30 µM (inactive) | > 30 µM (inactive) | > 30 µM (inactive) | > 30 µM (inactive) | > 30 µM (inactive) | > 30 µM (inactive) | > 30 µM (inactive) | > 30 µM (inactive) | > 30 µM (inactive) |

— ChEMBL document CHEMBL3991601, “The target landscape of clinical kinase drugs” (Science, 2017)
